Structures can show the parent of a compound that is named as a salt. Where two headings read alike, the source gives them in different places.
Target: T1, canine TRPM8 (Canis lupus familiaris, UniProt Q1A7N1)
T1 construct: expressed in transfected cells
Assay: In Vitro Canine TRPM8 Functional Assay (icilin-induced intracellular Ca2+, FLIPR/FDSS)
Format: cell-based
Conditions: for inhibition at 0.2 µM: HEK293, 0.2 μM compound, icilin activation, read-out: % Inh @ 0.2 μM
Description: The functional activity of representative compounds of the formula (I) of the present invention was quantified by measuring changes in intracellular calcium concentration using a Ca^2+-sensitive fluorescent dye. The changes in fluorescent signal were monitored by a fluorescence plate reader, either a FLIPR™ (Molecular Devices) or FDSS (Hamamatsu).
HEK293 cells stably expressing canine TRPM8 were routinely grown as monolayers in Dulbecco's minimum essential medium supplemented with 10% FBS, 2 mM L-glutamine, 100 units/mL penicillin, 100 ug/mL streptomycin and 400 μg/mL G418. Cells were maintained in 5% CO2 at 37° C. At 24 hr prior to assay, cells were seeded in black wall, clear-base poly-D-lysine coated 384-well plates (BD Biosciences, NJ, USA) at a density of 5,000 cells per well in culture medium and grown overnight in 5% CO2 at 37° C. On assay day, growth media was removed, and cells were loaded with Calcium 3 Dye (Molecular Devices) for 35 min at 37° C., under 5% CO2 and then incubated for 25 min at room temperature and atmosphere. Subsequently, cells were tested for agonist-induced increases in intracellular Ca^2+ levels using FLIPR™ or FDSS. Cells were treated with compounds of the formula (I) at varying concentrations and intracellular […] was measured for 5 min prior to the addition of icilin to all wells to achieve a final concentration that produces approximately an 80% maximal response.
Basal FI was subtracted prior to normalizing data to percent of maximal response. Curves were generated using the average of quadruplicate wells for each data point using nonlinear regression of either sigmoidal dose response or sigmoidal dose response (variable slope). Finally, the EC50 and IC50 values were calculated with the best-fit curve determined by GraphPad Prism

[1] = HEK293 cells stably expressing canine TRPM8
[2] = HEK293 cells stably expressing canine TRPM8, icilin at approx. 80% maximal response, eight-point concentration-response, read-out: IC50

T1 sequence (Q1A7N1 1-1104): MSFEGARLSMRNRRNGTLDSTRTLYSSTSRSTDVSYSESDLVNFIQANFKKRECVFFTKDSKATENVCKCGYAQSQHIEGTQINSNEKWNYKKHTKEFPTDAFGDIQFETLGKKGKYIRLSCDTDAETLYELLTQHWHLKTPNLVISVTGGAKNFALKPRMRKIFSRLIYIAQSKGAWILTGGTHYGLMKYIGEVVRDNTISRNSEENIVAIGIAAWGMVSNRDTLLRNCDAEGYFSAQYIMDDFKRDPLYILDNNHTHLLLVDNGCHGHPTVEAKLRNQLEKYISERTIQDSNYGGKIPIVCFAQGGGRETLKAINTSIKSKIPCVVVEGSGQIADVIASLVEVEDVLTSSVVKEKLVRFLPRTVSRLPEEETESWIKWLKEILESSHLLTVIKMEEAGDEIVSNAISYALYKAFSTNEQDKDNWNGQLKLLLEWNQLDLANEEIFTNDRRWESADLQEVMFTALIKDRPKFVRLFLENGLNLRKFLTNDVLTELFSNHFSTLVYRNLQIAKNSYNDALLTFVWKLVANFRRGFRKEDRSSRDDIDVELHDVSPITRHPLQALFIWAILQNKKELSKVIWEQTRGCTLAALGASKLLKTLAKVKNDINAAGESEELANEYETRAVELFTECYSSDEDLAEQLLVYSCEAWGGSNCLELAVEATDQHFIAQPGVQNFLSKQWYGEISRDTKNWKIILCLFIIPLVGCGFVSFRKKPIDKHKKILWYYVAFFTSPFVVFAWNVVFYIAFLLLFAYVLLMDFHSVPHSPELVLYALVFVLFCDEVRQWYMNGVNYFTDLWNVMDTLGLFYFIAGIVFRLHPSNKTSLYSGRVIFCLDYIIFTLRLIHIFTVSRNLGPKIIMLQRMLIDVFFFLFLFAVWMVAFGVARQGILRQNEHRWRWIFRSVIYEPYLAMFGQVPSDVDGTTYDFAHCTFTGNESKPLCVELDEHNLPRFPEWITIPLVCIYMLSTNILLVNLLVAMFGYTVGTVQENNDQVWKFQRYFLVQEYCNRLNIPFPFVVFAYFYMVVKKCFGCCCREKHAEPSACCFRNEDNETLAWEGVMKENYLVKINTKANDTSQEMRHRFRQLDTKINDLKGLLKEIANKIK

inhibition at 0.2 µM [1] [%]	IC50 [2] [nM]	inhibition at 1 µM (re-test, 1 μM, 10 mM stock diluted with 100% DMSO prior to addition to assay buffer) [%]	IC50 (re-test, 10 mM stock diluted with 100% DMSO prior to addition to assay buffer, read-out: calculated IC50) [nM]	SMILES
101	17			O=S(=O)(c1ccccc1)N(Cc1ccc(C(F)(F)F)cc1)c1nc2cccc3c2n1CCC3 [compound 65]
102	7			CCn1c(N(Cc2ccc(C(F)(F)F)c(F)c2)S(=O)(=O)c2ccccc2)nc2ccccc21 [compound 34]
101	28			Cc1cc2nc(N(Cc3ccc(C(F)(F)F)c(F)c3)S(=O)(=O)c3ccccc3)n(C)c2cc1C [compound 75]
101	2			Cn1c(N(Cc2ccc(F)c(F)c2)S(=O)(=O)c2ccccc2)nc2ccccc21 [compound 9]
102	11			Cn1c(N(Cc2ccc(C(F)(F)F)c(F)c2)S(=O)(=O)c2ccc(F)cc2)nc2ccccc21 [compound 38]
101	60			Cn1c(N(Cc2ccc(C(F)(F)F)c(F)c2)S(=O)(=O)c2ccc(C(F)(F)F)cc2)nc2ccccc21 [compound 40]
99	22			O=S(=O)(c1ccccc1)N(Cc1ccc(C(F)(F)F)cc1)c1nc2cccc3c2n1CCO3 [Compound #72, N-(3,4-Dihydro-5-oxa-1,2a-diaza-acenaphthylen-2-yl)-N-(4-trifluoromethyl-benzyl)-benzenesulfonamide TFA salt]
101	3			Cn1c(N(Cc2cccc(OC(F)(F)F)c2)S(=O)(=O)c2ccccc2)nc2ccccc21 [compound 13]
101	49			Cn1c(N(Cc2ccc(OC(F)(F)F)cc2)S(=O)(=O)c2ccc(C(F)(F)F)cc2)nc2ccccc21 [compound 27]
99	9			Cn1c(N(Cc2ccc(OC(F)(F)F)cc2)S(=O)(=O)c2ccccc2)nc2cc(F)ccc21 [compound 57]
102	10			Cn1c(N(Cc2ccc(C(F)(F)F)c(F)c2)S(=O)(=O)c2ccc(Cl)cc2)nc2ccccc21 [compound 39]
101	8			Cn1c(N(Cc2ccccc2)S(=O)(=O)c2ccccc2)nc2ccccc21 [compound 10]
9		101	94	CN(c1nc2ccccc2n1C)S(=O)(=O)c1ccccc1 [Compound #3, N-methyl-N-(1-methyl-1H-benzimidazol-2-yl)-benzenesulfonamide]
102	2			Cn1c(N(Cc2ccc(OC(F)F)cc2)S(=O)(=O)c2ccccc2)nc2ccccc21 [compound 23]
11				CCCCN(c1nc2ccccc2n1CCO)S(=O)(=O)c1ccccc1 [compound 2, N-butyl-N-[1-(2-hydroxy-ethyl)-1H-benzimidazol-2-yl]-benzenesulfonamide]
100	19			O=S(=O)(c1ccccc1)N(Cc1ccc(OC(F)(F)F)cc1)c1nc2cccc3c2n1CCC3 [compound 62]
101	9.4			Cc1cccc2c1nc(N(Cc1ccc(C(F)(F)F)c(F)c1)S(=O)(=O)c1ccccc1)n2C [compound 76]
99	6			Cn1c(N(Cc2ccc(C(F)(F)F)c(F)c2)S(=O)(=O)c2ccccc2)nc2cc(F)ccc21 [compound 58]
99	5			Cn1c(N(Cc2ccc(F)c(C(F)(F)F)c2)S(C)(=O)=O)nc2ccccc21 [compound 17]
96	24			CC(C)n1c(N(Cc2ccc(C(F)(F)F)c(F)c2)S(=O)(=O)c2ccccc2)nc2cc(Cl)ccc21 [compound 56]
95	5			CCn1c(N(Cc2ccc(OC(F)(F)F)cc2)S(=O)(=O)c2ccccc2)nc2ccccc21 [compound 29]
99	24			Cc1ccc2nc(N(Cc3ccc(C(F)(F)F)cc3)S(=O)(=O)c3ccccc3)n(C)c2c1 [compound 68]
76	77			O=S(=O)(c1ccccc1)N(Cc1ccc(OC(F)(F)F)cc1)c1nc2ccccc2n1CC(F)(F)F [compound 59]
81	48			CC(C)Cn1c(N(Cc2ccc(OC(F)(F)F)cc2)S(=O)(=O)c2ccccc2)nc2ccccc21 [compound 49]
100	4			Cn1c(N(Cc2ccc(C(F)(F)F)cc2)S(=O)(=O)c2ccccc2)nc2cc(F)ccc21 [compound 43]

inhibition at 0.2 µM [1] [%]	IC50 [2] [nM]	inhibition at 1 µM (re-test, 1 μM, 10 mM stock diluted with 100% DMSO prior to addition to assay buffer) [%]	IC50 (re-test, 10 mM stock diluted with 100% DMSO prior to addition to assay buffer, read-out: calculated IC50) [nM]	SMILES
98	21			Cc1ccc2nc(N(Cc3ccc(OC(F)(F)F)cc3)S(=O)(=O)c3ccccc3)n(C)c2c1 [compound 66]
99	19			Cc1cc2nc(N(Cc3ccc(OC(F)(F)F)cc3)S(=O)(=O)c3ccccc3)n(C)c2cc1C [compound 74]
102	1			Cn1c(N(Cc2ccc(C(F)(F)F)c(F)c2)S(=O)(=O)c2ccccc2)nc2ccccc21 [compound 21]
71	77			CC(C)Cn1c(N(Cc2ccc(C(F)(F)F)cc2)S(=O)(=O)c2ccccc2)nc2ccccc21 [compound 24]
96	33			Cn1c(N(Cc2ccc(C(F)(F)F)cc2)S(=O)(=O)c2ccc(C(F)(F)F)cc2)nc2ccccc21 [compound 31]
19				CCCCN(c1nc2ccccc2n1Cc1ccccc1)S(=O)(=O)c1ccccc1 [Compound #1, N-(1-benzyl-1H-benzimidazol-2-yl)-N-butyl-benzenesulfonamide]
96	47			CC(C)n1c(N(Cc2ccc(OC(F)(F)F)cc2)S(=O)(=O)c2ccccc2)nc2cc(Cl)ccc21 [compound 61]
102	6			Cn1c(N(Cc2cc(C(F)(F)F)ccc2F)S(=O)(=O)c2ccccc2)nc2ccccc21 [compound 22]
102	3			Cn1c(N(Cc2cccc(C(F)(F)F)c2)S(=O)(=O)c2ccccc2)nc2ccccc21 [Compound #12, N-(1-Methyl-1H-benzimidazol-2-yl)-N-(3-trifluoromethyl-benzyl)-benzenesulfonamide]
102	11			Cn1c(N(Cc2ccc(OC(F)(F)F)cc2)S(=O)(=O)c2ccc(Cl)cc2)nc2ccccc21 [compound 26]
102	9			Cn1c(N(Cc2ccc(C(F)(F)F)cc2)S(=O)(=O)c2ccc(Cl)cc2)nc2ccccc21 [compound 41]
101	1			Cn1c(N(Cc2ccc(SC(F)(F)F)cc2)S(=O)(=O)c2ccccc2)nc2ccccc21 [compound 19]
92	41			CCCCN(c1nc2ccccc2n1C)S(=O)(=O)c1ccccc1 [Compound #4, N-Butyl-N-(1-methyl-1H-benzimidazol-2-yl)-benzenesulfonamide]
106	14			Cc1ccc(S(=O)(=O)N(Cc2ccc(F)c(C(F)(F)F)c2)c2nc3ccccc3n2C)cc1 [compound 18]
101	2			Cn1c(N(Cc2ccc(C(F)(F)F)cc2)S(=O)(=O)c2ccccc2)nc2ccccc21 [compound 11]
96	4			CCn1c(N(Cc2ccc(C(F)(F)F)cc2)S(=O)(=O)c2ccccc2)nc2ccccc21 [compound 30]
101	4			Cn1c(N(Cc2ccc(F)cc2)S(=O)(=O)c2ccccc2)nc2ccccc21 [compound 8]
101	26			O=S(=O)(c1ccccc1)N(Cc1ccc(OC(F)(F)F)cc1)c1nc2ccccc2n1CC1CC1 [compound 69]
97	30			Cn1c(N(Cc2ccc(F)c(C(F)(F)F)c2)S(=O)(=O)c2cccc(Cl)c2)nc2ccccc21 [compound 14]
94	33			Cn1c(N(c2ccc(Cl)cc2)S(=O)(=O)c2ccccc2)nc2ccccc21 [Compound #36, N-(4-Chloro-phenyl)-N-(1-methyl-1H-benzimidazol-2-yl)-benzenesulfonamide]
100	7			CCn1c(N(Cc2ccc(C(F)(F)F)c(F)c2)S(=O)(=O)c2ccccc2)nc2cc(F)ccc21 [compound 48]
99	3.4			O=S(=O)(c1ccccc1)N(Cc1ccc(OC(F)(F)F)cc1)c1nc2cccc3c2n1CCO3 [Compound #73]
101	22			O=S(=O)(c1ccccc1)N(Cc1ccc(C(F)(F)F)c(F)c1)c1nc2cccc3c2n1CCC3 [compound 63]
94	6			Cn1c(N(Cc2ccc(OC(F)(F)F)cc2)S(=O)(=O)c2ccc(F)cc2)nc2ccccc21 [compound 32]

From US8242157B2, “Benzimidazole derivatives useful as TRPM8 channel modulators” (Janssen Pharmaceutica NV, priority 2009, dated 2012)
